Test results published in the supplement of paper PMC13380429.

What was measured:
[1] = tested on: A549-ACE2 infected with SARS-CoV-2; assay: cell count relative to DMSO; higher = less toxic; conditions: 24 h
Caco-2 [2] = assay: cell viability relative to DMSO; higher = less toxic; conditions: 72 h
Calu-3 [3] = assay: as above; conditions: 72 h
HepG2 [4] = assay: as above; conditions: 72 h
U2OS [5] = assay: as above; conditions: 72 h
[6] = tested on: A549-ACE2 infected with SARS-CoV-2; assay: SARS-CoV-2 infection rate relative to DMSO; higher = more infection; conditions: 24 h
A549-ACE2 = assay: drug-induced phospholipidosis relative to tamoxifen; higher = more phospholipidosis
[7] = tested on: A549-ACE2 infected with SARS-CoV-2; assay: morphology score (similarity to uninfected cells); higher = more like uninfected cells; conditions: 24 h
Caco-2 [8] = assay: relative viability EC50 (midpoint between 100% and the lowest measured viability); higher = less toxic; conditions: 72 h
Calu-3 [9] = assay: as above; conditions: 72 h
HepG2 [10] = assay: as above; conditions: 72 h
U2OS [11] = assay: as above; conditions: 72 h
Caco-2 [12] = assay: drug sensitivity score (DSS) for viability; higher = more toxic; extreme values may be limits of the assay; conditions: 72 h
Calu-3 [13] = assay: as above; conditions: 72 h
HepG2 [14] = assay: as above; conditions: 72 h
U2OS [15] = assay: as above; conditions: 72 h
Vero E6 [16] = assay: cell viability relative to DMSO; higher = less toxic; conditions: 72 h
Vero E6 [17] = assay: relative viability EC50 (midpoint between 100% and the lowest measured viability); higher = less toxic; conditions: 72 h
Vero E6 [18] = assay: drug sensitivity score (DSS) for viability; higher = more toxic; extreme values may be limits of the assay; conditions: 72 h

Nc1nccc(Oc2ccc(NC(=O)c3c[nH]cc(-c4ccc(F)cc4)c3=O)cc2F)c1Cl [metatinib]
Conditions | SARS-CoV-2 infection rate, [6] [%] | cell count, [1] [%] | cell viability, Caco-2 [2] [%] | cell viability, Calu-3 [3] [%] | cell viability, HepG2 [4] [%] | cell viability, U2OS [5] [%] | morphology score, [7]
1 nM | – | – | 100 | 91.4 | 104 | 96.2 | –
10 nM | – | – | 104 | 96.5 | 106 | 102 | –
100 nM | – | – | 92.6 | 95.5 | 101 | 100 | –
0.3 µM | 101 | 95 | – | – | – | – | -0.24
1000 nM | – | – | 104 | 95.3 | 85.6 | 99.2 | –
3 µM | 91 | 102 | – | – | – | – | -0.08
10 µM | 97 | 106 | – | – | – | – | 0.16
10000 nM | – | – | 80 | 96.3 | 37.7 | 94.9 | –
30 µM | 60 | 60 | – | – | – | – | 0.34

drug-induced phospholipidosis [%], A549-ACE2
Conditions | 0.3 µM | 0.833333 µM | 3.33333 µM | 6.66667 µM | 10 µM | 30 µM
24 h | 2.65 | 1.25 | 4.8 | 18.8 | 23.4 | 32.3
48 h | 4.96 | -2.22 | -0.29 | 7.93 | 12.6 | 20.2
72 h | 2.59 | -0.924 | 2.59 | 8.07 | 10.8 | 22.5

Conditions | drug sensitivity score | relative viability EC50 [nM]
Caco-2 [8] | – | > 10000
Caco-2 [12] | 0.4 | –
Calu-3 [9] | – | > 10000
Calu-3 [13] | 0 | –
HepG2 [10] | – | 1610
HepG2 [14] | 5.7 | –
U2OS [11] | – | > 10000
U2OS [15] | 0 | –

COc1c(C)c2c(c(O)c1C/C=C(\C)CCC(=O)OCCN1CCOCC1)C(=O)OC2 [mycophenolate-mofetil]
Conditions | SARS-CoV-2 infection rate, [6] [%] | cell count, [1] [%] | cell viability, Caco-2 [2] [%] | cell viability, Calu-3 [3] [%] | cell viability, HepG2 [4] [%] | cell viability, U2OS [5] [%] | cell viability, Vero E6 [16] [%] | morphology score, [7]
1 nM | – | – | 94.2 | 89.2 | 103 | 96.5 | 99 | –
10 nM | – | – | 101 | 102 | 101 | 97.9 | 98.4 | –
100 nM | – | – | 106 | 94.4 | 112 | 87.8 | 99.1 | –
0.3 µM | 97 | 102 | – | – | – | – | – | 0.22
1000 nM | – | – | 76 | 85.1 | 61.6 | 73.5 | 75.1 | –
3 µM | 78 | 80 | – | – | – | – | – | 0.12
10 µM | 81 | 94 | – | – | – | – | – | 0.22
10000 nM | – | – | 51.3 | 53.1 | 29.2 | 22.8 | 31.3 | –
30 µM | 65 | 92 | – | – | – | – | – | 0.37

drug-induced phospholipidosis [%], A549-ACE2
Conditions | 0.3 µM | 0.833333 µM | 3.33333 µM | 6.66667 µM | 10 µM | 30 µM
24 h | -1.99 | -10.6 | -14.8 | -15.8 | -12.1 | -11.3
48 h | 0.05 | -8.58 | – | – | – | –
72 h | 1.31 | -1.93 | – | – | – | –

Conditions | drug sensitivity score | relative viability EC50 [nM]
Caco-2 [12] | 5.6 | –
Calu-3 [13] | 4.2 | –
HepG2 [10] | – | 938
HepG2 [14] | 8.6 | –
U2OS [11] | – | 1440
U2OS [15] | 7.2 | –
Vero E6 [17] | – | 1250
Vero E6 [18] | 7.3 | –

[O-][n+]1ccccc1[S-].[O-][n+]1ccccc1[S-].[Zn+2] [pyrithione-zinc]
Conditions | SARS-CoV-2 infection rate, [6] [%] | cell count, [1] [%] | cell viability, Caco-2 [2] [%] | cell viability, Calu-3 [3] [%] | cell viability, HepG2 [4] [%] | cell viability, U2OS [5] [%] | cell viability, Vero E6 [16] [%] | morphology score, [7]
1 nM | – | – | 91.4 | 102 | 97 | 102 | 98.8 | –
10 nM | – | – | 94.5 | 94.8 | 111 | 95.1 | 93.6 | –
100 nM | – | – | 69.8 | 94.6 | 102 | 97 | 94.4 | –
0.3 µM | 95 | 99 | – | – | – | – | – | 0.13
1000 nM | – | – | 13.4 | 40.6 | 24.6 | 10.8 | 40 | –
3 µM | 76 | 4 | – | – | – | – | – | 0.14
10000 nM | – | – | 22.9 | 18.8 | -0.1 | 1.3 | 0.1 | –

drug-induced phospholipidosis [%], A549-ACE2
Conditions | 24 h | 48 h | 72 h
0.3 µM | -3.98 | -0.06 | 2.15
0.833333 µM | 2.2 | – | –

Conditions | drug sensitivity score | relative viability EC50 [nM]
Caco-2 [8] | – | 137
Caco-2 [12] | 19.5 | –
Calu-3 [9] | – | 527
Calu-3 [13] | 12 | –
HepG2 [10] | – | 640
HepG2 [14] | 14.1 | –
U2OS [11] | – | 406
U2OS [15] | 16.4 | –
Vero E6 [17] | – | 748
Vero E6 [18] | 12.8 | –

Nc1ccn([C@H]2CC[C@@H](CO)O2)c(=O)n1 [zalcitabine]
cell viability [%]
Conditions | Caco-2 [2] | Calu-3 [3] | HepG2 [4] | U2OS [5] | Vero E6 [16]
1 nM | 94.2 | 99.2 | 101 | 101 | 102
10 nM | 99.2 | 91.1 | 93.1 | 105 | 104
100 nM | 90.6 | 103 | 98.3 | 94.2 | 100
1000 nM | 93.5 | 101 | 94.8 | 97.2 | 99.1
10000 nM | 98.7 | 106 | 98.9 | 99.1 | 90.9

Conditions | drug sensitivity score | relative viability EC50 [nM]
Caco-2 [8] | – | > 10000
Caco-2 [12] | 0 | –
Calu-3 [9] | – | > 10000
Calu-3 [13] | 0 | –
HepG2 [10] | – | > 10000
HepG2 [14] | 0 | –
U2OS [11] | – | > 10000
U2OS [15] | 0 | –
Vero E6 [17] | – | > 10000
Vero E6 [18] | 0 | –

CC(C)N[C@H]1CCn2c(=O)[nH]c3cccc(c32)[C@@H]1O [zilpaterol]
cell viability [%]
Conditions | Caco-2 [2] | Calu-3 [3] | HepG2 [4] | U2OS [5] | Vero E6 [16]
1 nM | 92.8 | 103 | 104.9 | 100 | 98.1
10 nM | 97.75 | 97.2 | 105.5 | 99.1 | 99.5
100 nM | 100 | 105 | 104 | 97.4 | 94.8
1000 nM | 96.9 | 93 | 95.95 | 98.6 | 99
10000 nM | 95.3 | 97.5 | 105 | 101 | 104

Conditions | drug sensitivity score | relative viability EC50 [nM]
Caco-2 [8] | – | > 10000
Caco-2 [12] | 0 | –
Calu-3 [9] | – | > 10000
Calu-3 [13] | 0 | –
HepG2 [10] | – | > 10000
HepG2 [14] | 0 | –
U2OS [11] | – | > 10000
U2OS [15] | 0 | –
Vero E6 [17] | – | > 10000
Vero E6 [18] | 0 | –
